Assay results from US20110201578A1, “COMPOSITION AND METHODS FOR THE TREATMENT OF PSEUDOFOLLICULITIS BARBAE AND SKIN IRRITATION” (priority 2010, published 2011).

Experiments:
skin = assay: Application to skin, detrimental effects; format: in vivo; conditions: used by itself, applied to skin; hours and/or days following application
Text: The low pKa results in an acidic solution having a pH of about 1.9, which damages skin and results in skin peeling in the hours and/or days following application to skin.

[1] = pH of the acidic solution of the substance used by itself; format: physicochemical; conditions: acetylsalicyclic acid by itself, unbuffered

In the case of CC(=O)Oc1ccccc1C(=O)O [acetylsalicyclic acid], the effect on skin (skin) is reported as “acts as a skin peeler” and the “pH of resulting acidic solution” value [1] is reported as “about 1.9”.
